Laboratory results reported in US20140186427A1, “ORODISPERSIBLE FILMS FOR THE MANUFACTURING OF INDIVIDUALISED MEDICINE OR FOR LARGE SCALE PRODUCTION” (TESA LABTEC GMBH, priority 2011, published 2014).
Where a name gives a salt, the structure may show the parent alone.

What was measured:
[1] = Solubility of the API in the ink (Klucel EX, brilliant blue, ethanol); assay type: physicochemical; conditions: brilliant blue and ethanol
Source text: The ingredients of the ink were Klucel® EX (hydroxypropylcellulose, Ashland, USA), brilliant blue and ethanol.

[2] = Recrystallisation after printing: polarised microscopy and X-ray diffraction; assay type: physicochemical; conditions: printed ODF
Source text: X-ray diffractograms were collected for the drug-free film, the APIs and the ODFs after the fourth printing process using […], Netherland). Polarised micrographs and scanning electron micrographs were collected for the drug-free film and the ODFs after the fourth printing process using a DMLB microscope (Leica Microsystems, Cambridge, UK) and a LEO 1430 VP (Leo Elektron Microscopy, Cambridge, UK).

Structure (SMILES)	Solubility in the ink [1]	Recrystallisation / crystals after the printing process [2]
C#CCN[C@@H]1CCc2ccccc21 [Rasagiline mesylate]	soluble in the ink	did not recrystallise
CN1CC(=O)N2[C@H](c3ccc4c(c3)OCO4)c3[nH]c4ccccc4c3C[C@@H]2C1=O [Tadalafil]	forms an ink-suspension	
